Assay results reported in article doi:10.1101/2021.07.01.450682v1 (biorxiv, 2021).

Legend:
[1] = molecular target: T1, PfLPL3 (lysophospholipase 3; recombinant hydrolase domain) (Plasmodium falciparum, UniProt Q8IK68); assay: coupled fluorescent lysophospholipase assay; assay type: biochemical; details: 16:0 LPC substrate; 50 mM Tris pH 8.0, 5 mM CaCl2; 20 μg enzyme in 200 μl
T1 sequence (Q8IK68 41-338): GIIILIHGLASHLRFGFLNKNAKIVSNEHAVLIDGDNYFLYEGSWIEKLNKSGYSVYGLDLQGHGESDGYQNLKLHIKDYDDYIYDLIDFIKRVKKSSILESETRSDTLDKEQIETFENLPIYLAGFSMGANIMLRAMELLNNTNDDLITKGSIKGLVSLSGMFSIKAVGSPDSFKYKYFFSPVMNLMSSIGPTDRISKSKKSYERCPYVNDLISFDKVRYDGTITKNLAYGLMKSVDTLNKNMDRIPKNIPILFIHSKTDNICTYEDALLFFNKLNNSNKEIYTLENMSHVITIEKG

purified protein = substrate: CCCCCCCCCCCCCCCC(=O)OC[C@@H](O)COP(=O)([O-])OCC[N+](C)(C)C; assay: purified protein; details: 50 mM Tris pH 8.0, 5 mM CaCl2, 20 μg enzyme

How did the IC50 [1] turn out when `O=C(CCc1ccccc1)c1ccccc1OCC(O)CN1CCCCC1` (stereo not drawn) [PCB6, MMV009015] was run?
The IC50 was 1260 nM.

`CCOc1cc(Br)c(C(C)NC(=O)c2cccc(OC)c2)cc1OCC` (stereo not drawn) [PCB7, MMV665796] was tested. Which IC50 [1] did it give?
Its IC50 is 920 nM.

B1: PfLPL3 (lysophospholipase 3; recombinant hydrolase domain) (Plasmodium falciparum 3D7) (protein)
chain: T1 sequence (Q8IK68 41-338)
How did the Km (purified protein) turn out when B1 was run?
Its Km is 49.25 µM.
